Values of other authors as cited in patent US20220287347A1, “PEPTIDES FOR TREATING MUSCLE ATROPHY” (NURITAS LIMITED, priority 2019, published 2022).

Experiments:
[1] = binding to lipoproteins

SMILES: NC(=O)CC[C@@H]1NC(=O)[C@H](Cc2ccccc2)NC(=O)[C@H](Cc2ccc(O)cc2)NC(=O)[C@@H](N)CSSC[C@@H](C(=O)N2CCC[C@H]2C(=O)N[C@@H](CCCN=C(N)N)C(=O)NCC(N)=O)NC(=O)[C@H](CC(N)=O)NC1=O [vasopressin]
- half-life in humans: 10 to 35 min

SMILES: C[C@@H](O)[C@@H]1NC(=O)[C@H](CCCCN)NC(=O)[C@@H](Cc2c[nH]c3ccccc23)NC(=O)[C@H](Cc2ccccc2)NC(=O)[C@@H](NC(=O)[C@H](N)Cc2ccccc2)CSSC[C@@H](C(=O)N[C@H](CO)[C@@H](C)O)NC1=O [octreotide]
- half-life in humans: about 100 min
- fraction unbound [1]: 0.65
